From patent US4178442A, “Novel cinnamoyles piperazines and homopiperazines, the method of preparing them and their application in therapeutics” (Delalande S. A., priority 1977, dated 1979)
Like-named read-outs stand apart in the source and are kept apart here.

Key:
anaesthetized dog = test: Antiangorous activity on anaesthetized dog: consumption of oxygen in the left ventricule and cardiac effort (KATZ's index); format: in vivo; details: for inhibition in vivo at 2.5 mg/kg / inhibition in vivo at […] / inhibition in vivo at 1.25 mg/kg / inhibition in vivo at 0.625 mg/kg: Canis lupus familiaris, iv
Procedure, shortened: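 Katz index taken as mean arterial pressure multiplied by ECG (D2) heart rate, and myocardial O2 use as coronary sinus flow via modified Morawitz cannula times coronary arteriovenous O2 difference. Animals: pentobarbital-anaesthetized dogs (30 mg/kg i.v.), test compounds infused slowly intravenously.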

in vivo = details: iv; for LD50: read-out: Toxicity: LD50; for mortality: read-out: Toxicity (Mortality)
Text: *LD50 or percentage of mortality which is given between brackets

[1] = 2.5 mg/kg i.v. slow perfusion, read-out: Diminution in consumption of O2
[2] = 2.5 mg/kg i.v. slow perfusion, read-out: Diminution in the cardiac effort (IK)
[3] = 1.25 mg/kg i.v. slow perfusion, read-out: Diminution in consumption of O2
[4] = 1.25 mg/kg i.v. slow perfusion, read-out: Diminution in the cardiac effort (IK)
[5] = 0.625 mg/kg i.v. slow perfusion

**Q.** With `COc1cc(/C=C/C(=O)N2CCN(CC(O)COc3ccc([N+](=O)[O-])cc3Cl)CC2)cc(OC)c1OC` (centres unmarked) [771 124] as the compound, how does the “Diminution in consumption of O2: in time” value (anaesthetized dog; 2.5 mg/kg i.v. slow perfusion) read?
**A.** 15 min

**Q.** And the “Diminution in the cardiac effort (IK): in time” value (from here on “Diminution in the cardiac effort”) (anaesthetized dog; 2.5 mg/kg i.v. slow perfusion)?
**A.** 23 min

**Q.** What about the inhibition in vivo at 2.5 mg/kg (anaesthetized dog; [1]) of the same compound?
**A.** 34%

**Q.** What about the inhibition in vivo at 2.5 mg/kg (anaesthetized dog; [2]) of the same compound?
**A.** 13%

**Q.** What about the LD50 (in vivo) of the same compound?
**A.** 270 mg/kg

**Q.** With `CNC(=O)Nc1ccc(OCC(O)CN2CCN(C(=O)/C=C/c3cc(OC)c(OC)c(OC)c3)CC2)c2c1CCCC2` (centres unmarked) [771 157] as the compound, how does the “Diminution in consumption of O2: in time” value (anaesthetized dog; 2.5 mg/kg i.v. slow perfusion) read?
**A.** 30 min

**Q.** What about the “Diminution in the cardiac effort” value (anaesthetized dog; 2.5 mg/kg i.v. slow perfusion) of the same compound?
**A.** 30 min

**Q.** What about the inhibition in vivo at 2.5 mg/kg (anaesthetized dog; [1]) of the same compound?
**A.** 53%

**Q.** And the inhibition in vivo at 2.5 mg/kg (anaesthetized dog; [2])?
**A.** 46%

**Q.** And the LD50 (in vivo)?
**A.** 210 mg/kg

**Q.** Which inhibition in vivo at […] (anaesthetized dog; 0.15 mg/kg i.v. slow perfusion, read-out: Diminution in consumption of O2) does the source give for `COc1cc(/C=C/C(=O)N2CCN(CC(O)COc3ccc(NC(=O)N(C)C)c4c3OCCO4)CC2)cc(OC)c1OC` (centres unmarked) [771 233] here?
**A.** 29%

**Q.** What about the inhibition in vivo at […] (anaesthetized dog; 0.15 mg/kg i.v. slow perfusion, read-out: Diminution in the cardiac effort (IK)) of the same compound?
**A.** 9%

**Q.** And the LD50 (in vivo)?
**A.** 310 mg/kg

**Q.** With `CNC(=O)N(C)c1ccc(OCC(O)CN2CCN(C(=O)/C=C/c3cc(OC)c(OC)c(OC)c3)CC2)c2c1OCCO2` (centres unmarked) [771 238] as the compound, how does the “Diminution in consumption of O2: in time” value (anaesthetized dog; 1.25 mg/kg i.v. slow perfusion) read?
**A.** 30 min

**Q.** What about the “Diminution in the cardiac effort” value (anaesthetized dog; 1.25 mg/kg i.v. slow perfusion) of the same compound?
**A.** 30 min

**Q.** What about the inhibition in vivo at 1.25 mg/kg (anaesthetized dog; [3]) of the same compound?
**A.** 40%

**Q.** And the inhibition in vivo at 1.25 mg/kg (anaesthetized dog; [4])?
**A.** 38%

**Q.** And the mortality (in vivo; 400 mg/kg i.v.)?
**A.** 0%

**Q.** Which “Diminution in consumption of O2: in time” value (anaesthetized dog; 1.25 mg/kg i.v. slow perfusion) does the source give for `COc1cc(/C=C/C(=O)N2CCN(CC(O)COc3ccc(OC(C)=O)c4c3OCCO4)CC2)cc(OC)c1OC` (centres unmarked) [780 004] here?
**A.** 30 min

**Q.** What about the “Diminution in the cardiac effort” value (anaesthetized dog; 1.25 mg/kg i.v. slow perfusion) of the same compound?
**A.** 15 min

**Q.** What about the inhibition in vivo at 1.25 mg/kg (anaesthetized dog; [3]) of the same compound?
**A.** 22%

**Q.** And the inhibition in vivo at 1.25 mg/kg (anaesthetized dog; [4])?
**A.** 14%

**Q.** What about the mortality (in vivo; 400 mg/kg i.v.) of the same compound?
**A.** 10%

**Q.** For `CNC(=O)Nc1ccc(OCCCN2CCN(C(=O)/C=C/c3cc(OC)c(OC)c(OC)c3)CC2)c2c1OCCO2` [780 040], which “Diminution in consumption of O2: in time” value (anaesthetized dog; 2.5 mg/kg i.v. slow perfusion) is on record?
**A.** 15 min

**Q.** What about the inhibition in vivo at 2.5 mg/kg (anaesthetized dog; [1]) of the same compound?
**A.** 59%

**Q.** What about the inhibition in vivo at 2.5 mg/kg (anaesthetized dog; [2]) of the same compound?
**A.** 9%

**Q.** And the mortality (in vivo; 400 mg/kg i.v.)?
**A.** 30%

**Q.** With `COc1cc(/C=C/C(=O)N2CCN(CC(O)COc3ccc(NC(C)=O)c4c3CCCC4)CC2)cc(OC)c1OC` (centres unmarked) [780 044] as the compound, how does the “Diminution in consumption of O2: in time” value (anaesthetized dog; 2.5 mg/kg i.v. slow perfusion) read?
**A.** 30 min

**Q.** And the “Diminution in the cardiac effort” value (anaesthetized dog; 2.5 mg/kg i.v. slow perfusion)?
**A.** 15 min

**Q.** What about the inhibition in vivo at 2.5 mg/kg (anaesthetized dog; [1]) of the same compound?
**A.** 49%

**Q.** And the inhibition in vivo at 2.5 mg/kg (anaesthetized dog; [2])?
**A.** 36%

**Q.** What about the mortality (in vivo; 400 mg/kg i.v.) of the same compound?
**A.** 10%

**Q.** With `COc1cc(/C=C/C(=O)N2CCN(CC(O)COc3ccc(O)c4c3OCCO4)CC2)cc(OC)c1OC` (centres unmarked) [780 120, 1-[3-(4-hydroxy-2,3-ethylenedioxy)phenoxy-2-hydroxy]propyl-4-(3,4,5-trimethoxy-cinnamoyl)piperazine, hydrated chlorhydrate] as the compound, how does the “Diminution in consumption of O2: in time” value (anaesthetized dog; 2.5 mg/kg i.v. slow perfusion) read?
**A.** 30 min

**Q.** What about the “Diminution in the cardiac effort” value (anaesthetized dog; 2.5 mg/kg i.v. slow perfusion) of the same compound?
**A.** 15 min

**Q.** What about the inhibition in vivo at 2.5 mg/kg (anaesthetized dog; [1]) of the same compound?
**A.** 65%

**Q.** And the inhibition in vivo at 2.5 mg/kg (anaesthetized dog; [2])?
**A.** 29%

**Q.** What about the LD50 (in vivo) of the same compound?
**A.** 340 mg/kg

**Q.** For `COc1cc(/C=C/C(=O)N2CCN(CC(O)COc3cccc4c3OCO4)CC2)cc(OC)c1OC` (centres unmarked) [780 138], which “Diminution in consumption of O2: in time” value (anaesthetized dog; 2.5 mg/kg i.v. slow perfusion) is on record?
**A.** 45 min

**Q.** And the “Diminution in the cardiac effort” value (anaesthetized dog; 2.5 mg/kg i.v. slow perfusion)?
**A.** 30 min

**Q.** And the inhibition in vivo at 2.5 mg/kg (anaesthetized dog; [1])?
**A.** 46%

**Q.** And the inhibition in vivo at 2.5 mg/kg (anaesthetized dog; [2])?
**A.** 19%

**Q.** And the LD50 (in vivo)?
**A.** 150 mg/kg

**Q.** Which results are given for `COc1cc(/C=C/C(=O)N2CCN(CC(O)COc3ccc(C(C)=O)c4c3OCO4)CC2)cc(OC)c1OC` (centres unmarked) [780 308]?
**A.** Diminution in consumption of O2: in time (anaesthetized dog; 2.5 mg/kg i.v. slow perfusion): 45 min; Diminution in the cardiac effort (IK): in time (anaesthetized dog; 2.5 mg/kg i.v. slow perfusion): 45 min; inhibition in vivo at 2.5 mg/kg (anaesthetized dog; [1]): 49%; inhibition in vivo at 2.5 mg/kg (anaesthetized dog; [2]): 37%; mortality (in vivo; 400 mg/kg i.v.): 10%

**Q.** For `COc1cc(/C=C/C(=O)N2CCN(CC(O)COc3ccc(NC(C)=O)c4c3OCCCO4)CC2)cc(OC)c1OC` (centres unmarked) [780 393], which “Diminution in consumption of O2: in time” value (anaesthetized dog; [5]) is on record?
**A.** 30 min

**Q.** What about the “Diminution in the cardiac effort” value (anaesthetized dog; [5]) of the same compound?
**A.** 30 min

**Q.** What about the inhibition in vivo at 0.625 mg/kg (anaesthetized dog; 0.625 mg/kg i.v. slow perfusion, read-out: Diminution in consumption of O2) of the same compound?
**A.** 24%

**Q.** And the inhibition in vivo at 0.625 mg/kg (anaesthetized dog; 0.625 mg/kg i.v. slow perfusion, read-out: Diminution in the cardiac effort (IK))?
**A.** 45%

**Q.** What about the mortality (in vivo; 400 mg/kg i.v.) of the same compound?
**A.** 10%

**Q.** For `CNC(=O)Nc1ccc(OCC(O)CN2CCN(C(=O)/C=C/c3cc(OC)c(OC)c(OC)c3)CC2)c2c1OCO2` (centres unmarked) [780 409], which “Diminution in consumption of O2: in time” value (anaesthetized dog; 2.5 mg/kg i.v. slow perfusion) is on record?
**A.** 90 min

**Q.** And the “Diminution in the cardiac effort” value (anaesthetized dog; 2.5 mg/kg i.v. slow perfusion)?
**A.** 90 min

**Q.** What about the inhibition in vivo at 2.5 mg/kg (anaesthetized dog; [1]) of the same compound?
**A.** 54%

**Q.** And the inhibition in vivo at 2.5 mg/kg (anaesthetized dog; [2])?
**A.** 43%

**Q.** What about the mortality (in vivo; 400 mg/kg i.v.) of the same compound?
**A.** 20%

**Q.** Which results are given for `COc1cc(/C=C/C(=O)N2CCCN(CC(O)COc3ccc(C(C)=O)cc3)CC2)cc(OC)c1OC` (centres unmarked) [780 415]?
**A.** Diminution in consumption of O2: in time (anaesthetized dog; 2.5 mg/kg i.v. slow perfusion): 30 min; Diminution in the cardiac effort (IK): in time (anaesthetized dog; 2.5 mg/kg i.v. slow perfusion): 30 min; inhibition in vivo at 2.5 mg/kg (anaesthetized dog; [1]): 29%; inhibition in vivo at 2.5 mg/kg (anaesthetized dog; [2]): 10%; LD50 (in vivo): 305 mg/kg

**Q.** What does the source list for `Cc1cccc(C)c1NC(=O)CN1CCN(CCCC(c2ccc(F)cc2)c2ccc(F)cc2)CC1` [LIDOFLAZINE, reference compound]?
**A.** inhibition in vivo at […] (anaesthetized dog; 1.5 mg/kg i.v. slow perfusion, read-out: Diminution in consumption of O2): 48%; inhibition in vivo at […] (anaesthetized dog; 1.5 mg/kg i.v. slow perfusion, read-out: Diminution in the cardiac effort (IK)): 40%; mortality (in vivo; 25 mg/kg i.v.): 50%
